Experimental data published in US20050148495A1, “Methods and materials including for treating acne” (priority 2003, published 2005).
≈ marks a conversion by molar mass, not a printed value. Where two headings read alike, the source gives them in different places. Non-standard residues stand in square brackets, D forms with d. Residues, ends and D or L forms follow the SMILES beside them. d1Nal = N[C@H](Cc1cccc2ccccc12)C(=O)O

Columns and labels:
Streptococcus sobrinus = Streptococcus sobrinus 27607
P. avidum = assay type: cell-based, Propionibacterium avidum
Protocol: (§1) This example addresses studies relating to the antimicrobial activities of XMP.629. An in vitro assessment of antibiotic activity in XMP.629 and various known antibiotics against a representative panel of bacterial strains associated with acne was conducted. A broth dilution methodology was employed using guidelines established by National Committee for Clinical Laboratory Standards (NCCLS) for anaerobic organisms to establish an antibacterial profile for XMP.629. Assays to determine the minimal bactericidal concentrations (MBC) and minimal inhibitory concentration (MIC) were conducted for XMP.629 and other known antibiotics. Furthermore, test to determine post antibiotic effect (PAE) of XMP.629 were done.
(§2) Inoculum from a representative panel of bacterial strains associated with acne, such as P. acnes, P. avidum, P. granulosum, and Staphylococcus epidermis was prepared by suspending approximately 5-10 isolated bacterial colonies in pre-reduced MicroScan® Inoculum Water (Dade Behring, Deerfield, Ill.), and growing the bacterial suspension to log phase (approximately 48 hrs). An inoculum of between 1-5×10^6/mL was achieved by adding 100 μL of the suspension to 25 mL Brain Heart Infusion Broth (BHI) (Anaerobe Systems, Morgan Hill, Calif.).
(§3) A stock solution of XMP.629 dissolved in water at a concentration of 4.0 mg/mL was prepared. Dilute solutions of XMP.629 at concentrations ranging from about 1.25 to about 160 μg/mL were made in either water or formulation buffer (130 mM sodium chloride, 0.2% P103 (poloxamer 333), and 0.10% EDTA, pH 7.3). Aqueous stock solutions of clindamycin and erythromycin were prepared in water.
(§4) Each tube, containing a final volume of 1 mL, was mixed by vortexing. Control tubes containing only water or formulation buffer were prepared for each isolate. Initial growth controls were determined by removing 10 μL from the water control tube and diluting it by 100 fold. From this dilution, 10 μL was used for inoculation and for spreading over the surface onto Laked Blood Agar (LBA) (Anaerobe Systems, Morgan Hill, Calif.) plates. The tubes and plates were incubated in an anaerobic atmosphere at 37° C. for 48 h. After incubation, the tubes were mixed and 10 μL samples were removed from each tube for additional plating. These plates were then further incubated in an anaerobic atmosphere at 37° C. for 48-72 h and the resulting colonies were counted. After adjusting for the dilution factor, the lowest concentration of drug or combination of drugs reducing the inoculum by ≧99.9% was considered to be the minimum bactericidal concentration (MBC). MBC50 and 90 values represent where 50 and 90%, respectively, of the tested strain's MBC values are equal to or less than the indicated concentration. The lowest concentration of antibiotic(s) that inhibited visible growth in the culture tubes was considered to be the minimal inhibitory concentration (MIC).
(§5) For comparison, additional Propionibacterium strains, were tested.

Macrococcus caseolyticus = Macrococcus caseolyticus 29750
P. granulosum = assay type: cell-based, Propionibacterium granulosum
Protocol: as §1, §2, §3, §4, §5

in vivo [1] = conditions: both, Sprague-Dawley, rat, plasma, 0.2 mg/kg
Protocol: Using non-radiolabeled XMP.629, a pharmacokinetic study was conducted in an analogous manner as described above for ^3H-XMP.629. However, in this study, a 0.05 or a 0.2 mg/kg intravenous dose of XMP.629 was administered to 2 males and 2 females rats. Blood samples were collected for 168 hours following dosing and plasma XMP.629 concentrations were measured using liquid chromatography/mass spectrometry (LC/MS).

Enterococcus hirae = Enterococcus hirae 9790
P. aeruginosa = assay type: cell-based, Pseudomonas aeruginosa
Protocol: Control tubes containing only water or formulation buffer were prepared for each isolate. Initial growth controls were determined by removing 10 μL from the water control tube and diluting it by 100 fold. From this dilution, 10 μL was used for inoculation and for spreading over the surface onto Laked Blood Agar (LBA) (Anaerobe Systems, Morgan Hill, Calif.) plates. The tubes and plates were incubated in an anaerobic atmosphere at 37° C. for 48 h. […] MBC50 and 90 values represent where 50 and 90%, respectively, of the tested strain's MBC values are equal to or less than the indicated concentration.

in vivo [2] = conditions: both, rat, plasma, po, 10 mg/kg, mean; for bioavailability: % F (bioavailability); for AUC: AUCall
[3] = RMA 8375, Formulation Buffer Solvent, Study 1
[4] = RMA 8375, Formulation Buffer Solvent, Study 2
[5] = RMA 8375, Water Solvent, Study 1
[6] = RMA 8375, Water Solvent, Study 2
[7] = RMA 8376, Formulation Buffer Solvent, Study 1
[8] = RMA 8376, Formulation Buffer Solvent, Study 2
[9] = RMA 8376, Water Solvent, Study 1
[10] = RMA 8376, Water Solvent, Study 2
[11] = RMA 9497, Formulation Buffer Solvent, Study 1
[12] = RMA 9497, Formulation Buffer Solvent, Study 2
[13] = RMA 9497, Water Solvent, Study 1
[14] = RMA 9497, Water Solvent, Study 2
[15] = RMA 13009, Formulation Buffer Solvent, Study 1
[16] = RMA 13009, Formulation Buffer Solvent, Study 2
[17] = RMA 13009, Water Solvent, Study 1
[18] = RMA 13009, Water Solvent, Study 2
[19] = RMA 5740, Formulation Buffer Solvent, Study 1
[20] = RMA 5740, Formulation Buffer Solvent, Study 2
[21] = RMA 5740, Water Solvent, Study 1
[22] = RMA 5740, Water Solvent, Study 2
[23] = RMA 6867, Formulation Buffer Solvent, Study 1
[24] = RMA 6867, Formulation Buffer Solvent, Study 2
[25] = RMA 6867, Water Solvent, Study 1
[26] = RMA 6867, Water Solvent, Study 2
[27] = RMA 7093, Formulation Buffer Solvent, Study 1
[28] = RMA 7093, Formulation Buffer Solvent, Study 2
[29] = RMA 7093, Water Solvent, Study 1
[30] = RMA 7093, Water Solvent, Study 2
[31] = RMA 11787, Formulation Buffer Solvent, Study 1
[32] = RMA 11787, Formulation Buffer Solvent, Study 2
[33] = RMA 11787, Water Solvent, Study 1
[34] = RMA 11787, Water Solvent, Study 2
[35] = 10 mg/kg XMP.629 acetate oral gavage in 5% glucose
[36] = 10 mg/kg XMP.629 acetate oral gavage in distilled water

CC(C)C[C@@H](NC(=O)[C@H](N)CCCCN)C(=O)N[C@H](Cc1ccccc1)C(=O)N[C@H](CCCNC(=N)N)C(=O)N[C@H](Cc1cccc2ccccc12)C(=O)N[C@H](CCC(N)=O)C(=O)N[C@H](C)C(=O)N[C@H](CCCCN)C(=O)N[C@H](Cc1cccc2ccccc12)C(N)=O [XMP.629, NH2-lys-leu-phe-arg-(3-(1-naphthyl)-ala)-gln-ala-lys-(3-(1-naphthyl)-ala)-CONH2] (H-[dK][dL][dF][dR][d1Nal][dQ][dA][dK][d1Nal]-NH2)
Minimum Inhibitory Concentrations (Streptococcus sobrinus): 2.00 µg/mL | MBC50 (P. avidum; P. avidum, 4 strains): 1 µg/mL | MBC90 (P. avidum; P. avidum, 4 strains): 2 µg/mL | MBC Range (P. avidum; P. avidum, 4 strains, in µg/mL): 1-2 | MBC (P. avidum; [3]): 0.50 µg/mL | MIC (P. avidum; [3]): 0.25 µg/mL | MBC (P. avidum; [4]): 1 µg/mL | MIC (P. avidum; [4]): 0.25 µg/mL | MBC (P. avidum; [5]): 1 µg/mL | MIC (P. avidum; [5]): 0.5 µg/mL | MBC (P. avidum; [6]): 2 µg/mL | MIC (P. avidum; [6]): 1 µg/mL | MBC (P. avidum; [7]): 0.50 µg/mL | MIC (P. avidum; [7]): 0.5 µg/mL | MBC (P. avidum; [8]): 2 µg/mL | MIC (P. avidum; [8]): 0.25 µg/mL | MBC (P. avidum; [9]): 2 µg/mL | MIC (P. avidum; [9]): 1 µg/mL | MBC (P. avidum; [10]): 2 µg/mL | MIC (P. avidum; [10]): 1 µg/mL | MBC (P. avidum; [11]): 1 µg/mL | MIC (P. avidum; [11]): 0.25 µg/mL | MBC (P. avidum; [12]): 2 µg/mL | MIC (P. avidum; [12]): 0.25 µg/mL | MBC (P. avidum; [13]): 2 µg/mL | MIC (P. avidum; [13]): 2 µg/mL | MBC (P. avidum; [14]): 4 µg/mL | MIC (P. avidum; [14]): 1 µg/mL | MBC (P. avidum; [15]): 0.50 µg/mL | MIC (P. avidum; [15]): 0.25 µg/mL | MBC (P. avidum; [16]): 1 µg/mL | MIC (P. avidum; [16]): 0.25 µg/mL | MBC (P. avidum; [17]): 1 µg/mL | MIC (P. avidum; [17]): 1 µg/mL | MBC (P. avidum; [18]): 1 µg/mL | MIC (P. avidum; [18]): 1 µg/mL | Minimum Inhibitory Concentrations (Macrococcus caseolyticus): 2.00 µg/mL | MBC50 (P. granulosum; P. granulosum, 4 strains): 0.25 µg/mL | MBC90 (P. granulosum; P. granulosum, 4 strains): 4 µg/mL | MBC Range (P. granulosum; P. granulosum, 4 strains, in µg/mL): 0.25-4 | MBC (P. granulosum; [19]): 2 µg/mL | MIC (P. granulosum; [19]): 1 µg/mL | MBC (P. granulosum; [20]): 0.25 µg/mL | MIC (P. granulosum; [20]): 0.25 µg/mL | MBC (P. granulosum; [21]): 4 µg/mL | MIC (P. granulosum; [21]): 2 µg/mL | MBC (P. granulosum; [22]): 1 µg/mL | MIC (P. granulosum; [22]): 1 µg/mL | MBC (P. granulosum; [23]): 2 µg/mL | MIC (P. granulosum; [23]): 0.5 µg/mL | MBC (P. granulosum; [24]): 4 µg/mL | MIC (P. granulosum; [24]): 4 µg/mL | MBC (P. granulosum; [25]): 2 µg/mL | MIC (P. granulosum; [25]): 1 µg/mL | MBC (P. granulosum; [26]): 4 µg/mL | MIC (P. granulosum; [26]): 4 µg/mL | MBC (P. granulosum; [27]): 2 µg/mL | MIC (P. granulosum; [27]): 1 µg/mL | MBC (P. granulosum; [28]): 0.25 µg/mL | MIC (P. granulosum; [28]): 0.25 µg/mL | MBC (P. granulosum; [29]): 2 µg/mL | MIC (P. granulosum; [29]): 2 µg/mL | MBC (P. granulosum; [30]): 0.5 µg/mL | MIC (P. granulosum; [30]): 1 µg/mL | MBC (P. granulosum; [31]): 2 µg/mL | MIC (P. granulosum; [31]): 2 µg/mL | MBC (P. granulosum; [32]): 0.25 µg/mL | MIC (P. granulosum; [32]): 0.25 µg/mL | MBC (P. granulosum; [33]): 2 µg/mL | MIC (P. granulosum; [33]): 2 µg/mL | MBC (P. granulosum; [34]): 1 µg/mL | MIC (P. granulosum; [34]): 1 µg/mL | clearance (in vivo [1]; intravenous): ~5.33 mL/min/kg | half-life (in vivo [1]; intravenous, alpha half-life, two compartment model): ~20 min | half-life (in vivo [1]; intravenous, terminal half-life, two compartment model): ~960 min | AUC (in vivo [1]; iv): 744 ng·h/mL | clearance (in vivo [1]; iv): 5.32 mL/min/kg | Vd (in vivo [1]; iv, Vc (volume of distribution of the central compartment), non-labeled XMP.629, 0.2 mg/kg intravenous, LC/MS, two compartment model, mean): 0.202 L/kg | Vd (in vivo [1]; iv, Vss (volume of distribution at steady state), non-labeled XMP.629, 0.2 mg/kg intravenous, mean): 2.25 L/kg | half-life (in vivo [1]; iv, t1/2 (average half-life), non-labeled XMP.629, 0.2 mg/kg intravenous, mean): 26.4 min | half-life (in vivo [1]; iv, t1/2 α (α half-life), non-labeled XMP.629, 0.2 mg/kg intravenous, mean): 21.2 min | half-life (in vivo [1]; iv, t1/2 β (β half-life), non-labeled XMP.629, 0.2 mg/kg intravenous, mean): 972 min | Minimum Inhibitory Concentrations (Enterococcus hirae): 2.00 µg/mL | MIC90, XMP.629 data reported as MBC values (P. aeruginosa): 32 µg/mL (≈ 24.9 µM) | MIC90, XMP.629 data reported as MBC values (P. aeruginosa; in FB (formulation buffer)): 0.5 µg/mL (≈ 0.39 µM) | bioavailability (in vivo [2]; [35]): 0.0044% | bioavailability (in vivo [2]; [36]): 0.0015% | AUC (in vivo [2]; [35]): 1.67 ng·h/mL | AUC (in vivo [2]; [36]): 0.55 ng·h/mL | Cmax (in vivo [2]; [35]): 4.6 ng/mL | Cmax (in vivo [2]; [36]): 1.5 ng/mL | Tmax (in vivo [2]; [35]): 11.4 min | Tmax (in vivo [2]; [36]): 8.4 min
